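Step 1: Grow cells in 96-well plates. Step 2: Expose to compound for 48 hours at 5 concentrations. Step 3: Interpolate endpoints linearly; if unreached, use highest concentration. TGI: total growth inhibition.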
Assays:
Test in all cases: DTP human tumour cell line panel, 48 h
786-0 renal = tested on: 786-0 renal
A498 renal = tested on: A498 renal
A549 NSCLC = tested on: A549 NSCLC
ACHN renal = tested on: ACHN renal
CCRF-CEM leukemia = tested on: CCRF-CEM leukemia
COLO 205 colon = tested on: COLO 205 colon
DLD-1 colon = tested on: DLD-1 colon
DMS 114 small cell lung = tested on: DMS 114 small cell lung
DMS 273 small cell lung = tested on: DMS 273 small cell lung
EKVX NSCLC = tested on: EKVX NSCLC
HCC-2998 colon = tested on: HCC-2998 colon
HCT-116 colon = tested on: HCT-116 colon
HCT-15 colon = tested on: HCT-15 colon
HL-60(TB) leukemia = tested on: HL-60(TB) leukemia
HOP-18 NSCLC = tested on: HOP-18 NSCLC
HOP-62 NSCLC = tested on: HOP-62 NSCLC
HOP-92 NSCLC = tested on: HOP-92 NSCLC
IGROV1 ovarian = tested on: IGROV1 ovarian
K-562 leukemia = tested on: K-562 leukemia
KM12 colon = tested on: KM12 colon
KM20L2 colon = tested on: KM20L2 colon
LOX IMVI melanoma = tested on: LOX IMVI melanoma
LXFL 529 NSCLC = tested on: LXFL 529 NSCLC
M14 melanoma = tested on: M14 melanoma
M19-MEL melanoma = tested on: M19-MEL melanoma
MALME-3M melanoma = tested on: MALME-3M melanoma
MOLT-4 leukemia = tested on: MOLT-4 leukemia
NCI-H460 lung = tested on: NCI-H460 lung
OVCAR-3 ovarian = tested on: OVCAR-3 ovarian
OVCAR-4 ovarian = tested on: OVCAR-4 ovarian
OVCAR-5 ovarian = tested on: OVCAR-5 ovarian
OVCAR-8 ovarian = tested on: OVCAR-8 ovarian
RPMI-8226 leukemia = tested on: RPMI-8226 leukemia
RXF 393 renal = tested on: RXF 393 renal
RXF-631 renal = tested on: RXF-631 renal
SF-268 CNS = tested on: SF-268 CNS
SF-295 CNS = tested on: SF-295 CNS
SF-539 CNS = tested on: SF-539 CNS
SK-MEL-2 melanoma = tested on: SK-MEL-2 melanoma
SK-MEL-28 melanoma = tested on: SK-MEL-28 melanoma
SK-MEL-5 melanoma = tested on: SK-MEL-5 melanoma
SK-OV-3 ovarian = tested on: SK-OV-3 ovarian
SN12C renal = tested on: SN12C renal
SNB-19 CNS = tested on: SNB-19 CNS
SNB-75 CNS = tested on: SNB-75 CNS
SNB-78 CNS = tested on: SNB-78 CNS
SR leukemia = tested on: SR leukemia
SW-620 colon = tested on: SW-620 colon
TK-10 renal = tested on: TK-10 renal
U251 CNS = tested on: U251 CNS
UACC-257 melanoma = tested on: UACC-257 melanoma
UACC-62 melanoma = tested on: UACC-62 melanoma
UO-31 renal = tested on: UO-31 renal
XF 498 CNS = tested on: XF 498 CNS

CCc1cc2c(Nc3ccccc3)c3c(nc2s1)CCCC3
TGI (786-0 renal): > 100 µM
TGI (A498 renal): > 100 µM
TGI (A549 NSCLC): > 100 µM
TGI (ACHN renal): > 100 µM
TGI (CCRF-CEM leukemia): > 100 µM
TGI (COLO 205 colon): > 100 µM
TGI (DLD-1 colon): > 100 µM
TGI (DMS 114 small cell lung): > 100 µM
TGI (DMS 273 small cell lung): > 100 µM
TGI (EKVX NSCLC): > 100 µM
TGI (HCC-2998 colon): > 100 µM
TGI (HCT-116 colon): > 100 µM
TGI (HCT-15 colon): > 100 µM
TGI (HL-60(TB) leukemia): > 100 µM
TGI (HOP-18 NSCLC): > 100 µM
TGI (HOP-62 NSCLC): > 100 µM
TGI (HOP-92 NSCLC): > 100 µM
TGI (IGROV1 ovarian): > 100 µM
TGI (K-562 leukemia): > 100 µM
TGI (KM12 colon): > 100 µM
TGI (KM20L2 colon): > 100 µM
TGI (LOX IMVI melanoma): 42 µM
TGI (LXFL 529 NSCLC): > 100 µM
TGI (M14 melanoma): > 100 µM
TGI (M19-MEL melanoma): > 100 µM
TGI (MALME-3M melanoma): > 100 µM
TGI (MOLT-4 leukemia): > 100 µM
TGI (NCI-H460 lung): > 100 µM
TGI (OVCAR-3 ovarian): > 100 µM
TGI (OVCAR-4 ovarian): > 100 µM
TGI (OVCAR-5 ovarian): > 100 µM
TGI (OVCAR-8 ovarian): > 100 µM
TGI (RPMI-8226 leukemia): 87 µM
TGI (RXF 393 renal): > 100 µM
TGI (RXF-631 renal): > 100 µM
TGI (SF-268 CNS): > 100 µM
TGI (SF-295 CNS): > 100 µM
TGI (SF-539 CNS): > 100 µM
TGI (SK-MEL-2 melanoma): > 100 µM
TGI (SK-MEL-28 melanoma): > 100 µM
TGI (SK-MEL-5 melanoma): > 100 µM
TGI (SK-OV-3 ovarian): > 100 µM
TGI (SN12C renal): > 100 µM
TGI (SNB-19 CNS): > 100 µM
TGI (SNB-75 CNS): 39.1 µM
TGI (SNB-78 CNS): > 100 µM
TGI (SR leukemia): 47.2 µM
TGI (SW-620 colon): > 100 µM
TGI (TK-10 renal): > 100 µM
TGI (U251 CNS): > 100 µM
TGI (UACC-257 melanoma): > 100 µM
TGI (UACC-62 melanoma): > 100 µM
TGI (UO-31 renal): > 100 µM
TGI (XF 498 CNS): 85.1 µM

Reference: PubChem BioAssay (NCI)
